Data as given in patent US7268128B2, “1,3,5-trisubstituted-5-phenyl and 5-pyridyl pyrazolopyrimidinone derivatives having PDE7 inhibiting action” (Ausbio Pharma Co., Ltd., priority 2001, dated 2007).
pIC50: −log10 of the molar value.

These compounds were tested against T1, PDE7 (type VII phosphodiesterase) (Homo sapiens, UniProt Q13946) (assay: PDE7 inhibiting activity (3H-cAMP hydrolysis, active fraction from MOLT-4 cells)). Conditions: PDE7 fraction from MOLT-4 cells, 0.064 μM cAMP, 10 μM rolipram present, 2 hours at 25° C.; read-out: IC50 values for phosphodiesterase inhibiting activities (PDE7).
T1 construct: endogenous in cells; host or cells: MOLT-4 (ATCC CRL-1582), soluble fraction, HiTrapQ anion-exchange fraction
T1 sequence (Q13946 whole entry): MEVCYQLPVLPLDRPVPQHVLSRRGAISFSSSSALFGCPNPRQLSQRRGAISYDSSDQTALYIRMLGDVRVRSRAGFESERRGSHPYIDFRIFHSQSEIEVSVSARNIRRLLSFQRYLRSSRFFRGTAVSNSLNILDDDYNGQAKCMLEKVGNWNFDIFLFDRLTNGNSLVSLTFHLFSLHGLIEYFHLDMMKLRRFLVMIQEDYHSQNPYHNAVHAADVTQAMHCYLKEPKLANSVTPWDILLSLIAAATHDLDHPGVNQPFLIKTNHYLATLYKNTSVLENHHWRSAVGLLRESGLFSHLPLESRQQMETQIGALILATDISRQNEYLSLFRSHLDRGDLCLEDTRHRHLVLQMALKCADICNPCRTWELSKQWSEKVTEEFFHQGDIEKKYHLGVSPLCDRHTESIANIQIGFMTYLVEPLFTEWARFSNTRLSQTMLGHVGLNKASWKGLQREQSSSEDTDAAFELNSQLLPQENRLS
Type: biochemical
How it was run: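 Read-out: supernatant radioactivity after twice-repeated QAE-Sephadex treatment of a 2 h, 25° C reaction (3H-cAMP at 0.064 μM cAMP, 10 μM rolipram, 5′-nucleotidase, 1 mM MgCl2, pH 7.5). Enzyme is an anion-exchange-purified fraction from MOLT-4 T cells. IC50 taken as half-maximal inhibition.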
For `COc1cc(CN2CCN(C)CC2)ccc1-c1nc2c(C)nn(C3CCCCC3)c2c(=O)[nH]1` [Example 234, 1-Cyclohexyl-5-{2-methoxy-4-[(4-methyl-1-piperazinyl)methyl]phenyl}-3-methyl-1,6-dihydro-7H-pyrazolo[4,3-d]pyrimidin-7-one], the pIC50 was at least 6.00.
Compound `CCNC1CCN(c2ccc(-c3nc4c(C)nn(C5CCCCC5)c4c(=O)[nH]3)c(OC)c2)CC1` [Example 99, 1-Cyclohexyl-5-{2-methoxy-4-[4-(ethylamino)-1-piperidinyl]phenyl}-3-methyl-1,6-dihydro-7H-pyrazolo[4,3-d]pyrimidin-7-one] has a pIC50 of at least 6.00.
Compound `COc1cc(N2CCC(N)CC2)ccc1-c1nc2c(c(C3CCCCC3)nn2C)c(=O)[nH]1` [Example 185, 6-[4-(4-Amino-1-piperidinyl)-2-methoxyphenyl]-3-cyclohexyl-1-methyl-1,5-dihydro-4H-pyrazolo[3,4-d]pyrimidin-4-one monomethanesulfonate] has a pIC50 of at least 8.00.
`COc1cc(S(=O)(=O)N(C)CCO)ccc1-c1nc2c(c(C3CCCCC3)nn2C)c(=O)[nH]1` [Example 156, 4-(3-Cyclohexyl-1-methyl-4-oxo-4,5-dihydro-1H-pyrazolo[3,4-d]pyrimidin-6-yl)-N-(2-hydroxyethyl)-3-methoxy-N-methylbenzenesulfonamide] gave a pIC50 of at least 6.00.
`COc1cc(N2CCC(N(C)C=O)CC2)ccc1-c1nc2c(C)nn(C3CCCCC3)c2c(=O)[nH]1` [Example 118, 1-[4-(1-Cyclohexyl-3-methyl-7-oxo-6,7-dihydro-1H-pyrazolo[4,3-d]pyrimidin-5-yl)-3-methoxyphenyl]-4-piperidiny(methyl)formamide] was tested, and the pIC50 was at least 6.00.
With `COc1cc(NC2CCN(C(C)=O)CC2)ccc1-c1nc2c(C)nn(C3CCCCC3)c2c(=O)[nH]1` [Example 231, 5-{4-[(1-Acetyl-4-piperidinyl)amino]-2-methoxyphenyl}-1-cyclohexyl-3-methyl-1,6-dihydro-7H-pyrazolo[4,3-d]pyrimidin-7-one] the pIC50 was at least 6.00.
`CC(=O)Nc1ccc(-c2nc3c(C)nn(C4CCCCC4)c3c(=O)[nH]2)nc1` [Example 12, N-[6-(1-cyclohexyl-3-methyl-7-oxo-1H-pyrazolo[4,3-d]pyrimidin-5-yl)-3-pyridinyl]acetamide] gave a pIC50 of at least 6.00.
`CCOc1cc(N2CCNCC2)ccc1-c1nc2c(C)nn(C3CCCCC3)c2c(=O)[nH]1` [Example 268, 1-Cyclohexyl-5-[2-ethoxy-4-(1-piperazinyl)phenyl]-3-methyl-1,6-dihydro-7H-pyrazolo[4,3-d]pyrimidin-7-one] showed a pIC50 of at least 6.00.
`COCCNCc1ccc(-c2nc3c(C)nn(C4CCCCC4)c3c(=O)[nH]2)c(OC)c1` [Example 237, 1-Cyclohexyl-5-(2-methoxy-4-{[(2-methoxyethyl)amino]methyl}phenyl)-3-methyl-1,6-dihydro-7H-pyrazolo[4,3-d]pyrimidin-7-one] gave a pIC50 of at least 6.00.
`COc1cc(N)ccc1-c1nc2c(c(C3CCCCC3)nn2C)c(=O)[nH]1` [Example 44, 6-(4-Amino-2-methoxyphenyl)-3-cyclohexyl-1-methyl-1,5-dihydro-4H-pyrazolo[3,4-d]pyrimidin-4-one] was tested, and the pIC50 was at least 8.00.
In the case of `CCN1CCCN(c2ccc(-c3nc4c(C)nn(C5CCCCC5)c4c(=O)[nH]3)c(OC)c2)CC1` [Example 127, 1-Cyclohexyl-5-[4-(4-ethyl-1,4-diazepan-1-yl)-2-methoxyphenyl]-3-methyl-1,6-dihydro-7H-pyrazolo[4,3-d]pyrimidin-7-one], the pIC50 was at least 6.00.
`COc1cc(S(=O)(=O)N2CCCNCC2)ccc1-c1nc2c(c(C3CCCCC3)nn2C)c(=O)[nH]1` [Example 161, 3-Cyclohexyl-6-[4-(1,4-diazepan-1-ylsulfonyl)-2-methoxyphenyl]-1-methyl-1,5-dihydro-4H-pyrazolo[3,4-d]pyrimidin-4-one monomethanesulfonate] gave a pIC50 of at least 6.00.
`CCOc1cc(NCCOC)ccc1-c1nc2c(C)nn(C3CCCCC3)c2c(=O)[nH]1` [Example 263, 1-Cyclohexyl-5-{2-ethoxy-4-[(2-methoxyethyl)amino]phenyl}-3-methyl-1,6-dihydro-7H-pyrazolo[4,3-d]pyrimidin-7-one] showed a pIC50 of at least 8.00.
With `COc1cc(NC(N)=O)ccc1-c1nc2c(c(C3CCCCC3)nn2C)c(=O)[nH]1` [Example 140, N-[4-(3-cyclohexyl-1-methyl-4-oxo-4,5-dihydro-1H-pyrazolo[3,4-d]pyrimidin-6-yl)-3-methoxyphenyl]urea] the pIC50 was at least 8.00.
In the case of `CCNC1CCN(c2ccc(-c3nc4c(C)nn(C5CCCCC5)c4c(=O)[nH]3)c(OCC)c2)CC1` [Example 253, 1-Cyclohexyl-5-{2-ethoxy-4-[4-(ethylamino)-1-piperidinyl]phenyl}-3-methyl-1,6-dihydro-7H-pyrazolo[4,3-d]pyrimidin-7-one], the pIC50 was at least 6.00.
For `COc1cc(S(=O)(=O)NCCO)ccc1-c1nc2c(c(C3CCCCC3)nn2C)c(=O)[nH]1` [Example 58, 4-(3-Cyclohexyl-1-methyl-4-oxo-4,5-dihydro-1H-pyrazolo[3,4-d]pyrimidin-6-yl)-N-(2-hydroxyethyl)-3-methoxybenzenesulfonamide], the pIC50 was at least 6.00.
`COc1cc(C(=O)N2CCC(O)CC2)ccc1-c1nc2c(c(C3CCCCC3)nn2C)c(=O)[nH]1` [Example 69, 3-Cyclohexyl-6-{4-[(4-hydroxy-1-piperidinyl)carbonyl]-2-methoxyphenyl}-1-methyl-1,5-dihydro-4H-pyrazolo[3,4-d]pyrimidin-4-one] gave a pIC50 of at least 6.00.
Work on `CN1CCN(c2ccc(-c3nc4c(c(C5CCCCC5)nn4C)c(=O)[nH]3)c(OC(F)F)c2)CC1` [Example 139, 3-Cyclohexyl-6-[2-(difluoromethoxy)-4-(4-methyl-1-piperazinyl)phenyl]-1-methyl-1,5-dihydro-4H-pyrazolo[3,4-d]pyrimidin-4-one monomethanesulfonate] yielded a pIC50 of at least 6.00.
Compound `COc1cc(S(=O)(=O)N2CCC(O)C2)ccc1-c1nc2c(c(C3CCCCC3)nn2C)c(=O)[nH]1` (stereo not drawn) [Example 164, 3-Cyclohexyl-6-{4-[(3-hydroxy-1-pyrrolidinyl)sulfonyl]-2-methoxyphenyl}-1-methyl-1,5-dihydro-4H-pyrazolo[3,4-d]pyrimidin-4-one] has a pIC50 of at least 6.00.
In the case of `CCn1nc(C2CCCCC2)c2c(=O)[nH]c(-c3ccc(S(=O)(=O)N4CCC(O)CC4)cc3OC)nc21` [Example 207, 3-Cyclohexyl-1-ethyl-6-{4-[(4-hydroxy-1-piperidinyl)sulfonyl]-2-methoxyphenyl}-1,5-dihydro-4H-pyrazolo[3,4-d]pyrimidin-4-one], the pIC50 was at least 6.00.
`COc1cc(S(=O)(=O)NCCCO)ccc1-c1nc2c(c(C3CCCCC3)nn2C)c(=O)[nH]1` [Example 159, 4-(3-Cyclohexyl-1-methyl-4-oxo-4,5-dihydro-1H-pyrazolo[3,4-d]pyrimidin-6-yl)-N-(3-hydroxypropyl)-3-methoxybenzenesulfonamide] showed a pIC50 of at least 6.00.
`COc1cc(N2CCC(O)CC2)ccc1-c1nc2c(c(C3CCCCC3)nn2C)c(=O)[nH]1` [Example 32, 3-Cyclohexyl-6-[4-(4-hydroxy-1-piperidinyl)-2-methoxyphenyl]-1-methyl-1,5-dihydro-4H-pyrazolo[3,4-d]pyrimidin-4-one monomethanesulfonate] showed a pIC50 of at least 8.00.
Compound `COc1cc(N(C)C(C)=O)ccc1-c1nc2c(c(C3CCCCC3)nn2C)c(=O)[nH]1` [Example 146, N-[4-(3-cyclohexyl-1-methyl-4-oxo-4,5-dihydro-1H-pyrazolo[3,4-d]pyrimidin-6-yl)-3-methoxyphenyl]-N-methylacetamide] has a pIC50 of at least 6.00.
Compound `COc1cc(NCCN(C)C)ccc1-c1nc2c(C)nn(C3CCCCC3)c2c(=O)[nH]1` [Example 230, 1-Cyclohexyl-5-(4-{[2-(dimethylamino)ethyl]amino}-2-methoxyphenyl)-3-methyl-1,6-dihydro-7H-pyrazolo[4,3-d]pyrimidin-7-one] has a pIC50 of at least 8.00.
Work on `CCOc1cc(N2CCCN(C)CC2)ccc1-c1nc2c(C)nn(C3CCCCC3)c2c(=O)[nH]1` [Example 130, 1-Cyclohexyl-5-[4-(4-methyl-1,4-diazepan-1-yl)-2-ethoxyphenyl]-3-methyl-1,6-dihydro-7H-pyrazolo[4,3-d]pyrimidin-7-one] yielded a pIC50 of at least 6.00.
With `CNS(=O)(=O)c1ccc(-c2nc3c(C)nn(C4CCCCC4)c3c(=O)[nH]2)c(OC)c1` [Example 201, 4-(1-Cyclohexyl-3-methyl-7-oxo-6,7-dihydro-1H-pyrazolo[4,3-d]pyrimidin-5-yl)-3-methoxy-N-methylbenzenesulfonamide] the pIC50 was at least 6.00.
`COc1cc(N2CCCNCC2)c(F)cc1-c1nc2c(C)nn(C3CCCCC3)c2c(=O)[nH]1` [Example 266, 1-Cyclohexyl-5-[4-(1,4-diazepan-1-yl)-5-fluoro-2-methoxyphenyl]-3-methyl-1,6-dihydro-7H-pyrazolo[4,3-d]pyrimidin-7-one] gave a pIC50 of at least 6.00.
With `COc1cc(NC(=O)N2CCOCC2)ccc1-c1nc2c(c(C3CCCCC3)nn2C)c(=O)[nH]1` [Example 148, N-[4-(3-cyclohexyl-1-methyl-4-oxo-4,5-dihydro-1H-pyrazolo[3,4-d]pyrimidin-6-yl)-3-methoxyphenyl]-4-morpholinecarboxamide] the pIC50 was at least 8.00.
`CCOc1cc(N2CCC(NC)CC2)ccc1-c1nc2c(c(C3CCCCC3)nn2C)c(=O)[nH]1` [Example 90, 3-Cyclohexyl-6-{2-ethoxy-4-[4-(methylamino)-1-piperidinyl]phenyl}-1-methyl-1,5-dihydro-4H-pyrazolo[3,4-d]pyrimidin-4-one monomethanesulfonate] was tested, and the pIC50 was at least 8.00.
`COc1cc(S(=O)(=O)NCCN(C)C)ccc1-c1nc2c(C)nn(C3CCCCC3)c2c(=O)[nH]1` [Example 211, 4-(1-Cyclohexyl-3-methyl-7-oxo-6,7-dihydro-1H-pyrazolo[4,3-d]pyrimidin-5-yl)-N-[2-(dimethylamino)ethyl]-3-methoxybenzenesulfonamide] was tested, and the pIC50 was at least 6.00.
